Results reported in patent US12116371B2, “Substituted pyridines as irreversible inhibitors of menin-MLL interaction” (BIOMEA FUSION, INC., priority 2018, dated 2024).
Read-outs that look alike come from different tables or passages of the source.

Key:
OCI-AML-3 cells [1] = assay: Long term proliferation assay, Cell Titer-Glo read-out; format: cell-based; conditions: for IC50: Homo sapiens; for % max: OCI-AML3
Description: (§1) Compounds of invention are tested in the 5 suspension lines by 14-day long-term proliferation assay.
(§2) The compound is tested in 10-pt dose titration (client will determine the starting concentration and the dilution scheme) and the final DMSO concentration is kept at 0.2%.
(§3) On Day 0, in a flat bottom 96-well plate, add 100 μL of cells per well at the densities optimized. Prepare compounds in DMSO at 500× final concentration. Dilute the compounds with DMSO at the dilution. Dilute the compounds in media at 3× final concentration. Add 50 μL of compound or DMSO at 3× final concentration to each well. Final volume in each well is 150 μL, and final concentration of DMSO is 0.2%. Also include 3 untreated control wells, by adding 50 μL of media alone. Incubate plates for 96 hours.
(§4) To do this take the total viable cell count calculated using step: • 1. Take the average of the replicates for each dose in order to be used in splitting the cells. • 2. Use a 96 well V-bottom plate to spin down the cells to remove old media and compound to split the cells. • 3. Based on the split ratio place the proper amount of media and cells into the V-bottom plate, and spin the plate at 1100 rpm for 5 minutes. • 4. Following the spin remove the media, careful not to disturb the cell pellet. Re-suspend pellet in 100 μL fresh media, and add to a new 96-well flat bottom plate. • 5. Add fresh compound, in the same manner as Step 3). • 6. Incubate plates for 72 hours. Repeat steps 5)-10) on Day 7. • 7. Incubate plates for 96 hours. Repeat Step 5)-10) on Day 11. • 8. Incubate 72 hours and repeat step 5) to take a final count. • 9. Data Analysis
(§5) To calculate growth for days 4, 7, 11, and 14: • 1. Calculate the split factor for day 4 to 7, day 7 to 11, and day 11-14. The split factor is the viable cells/mL on Day X (either 4, 7 or 11) divided by the density the cells are being split back to. • 2. For growth of cells from day 4 to 7, multiply the day 7 viable cells/mL density by the split factor from day 4. • 3. For growth of cells from day 7 to 11, multiply the day 11 viable cells/mL density by the days 4, and 7 split factors. • 4. For growth of cells from Day 11 to 14, multiply the Day 14 viable cells/mL density by the days 4, 7, and 11 split factors. • 5. Plot growth on semi-log chart (viable cells/mL on Y axis, in log, and days on X axis). • 6. The growth inhibition was calculated with the formula ((untreated cell numbers-treated cell numbers)/untreated cell)). • 7. Calculate the IC50 for each compound in each line using XLFit (Sigmoidal Dose-Response Model, y=(Bottom+((Top-Bottom)/(1+((IC50/×)^Hill))))).

KG-1 cells [2] = assay: as above; format: cell-based; conditions: for IC50: Homo sapiens
Description: as §1, §2, §3, §4, §5

OCI-AML-3 cells [3] = assay: Long term proliferation assay, InCell read-out; format: cell-based; conditions: for IC50: Homo sapiens
Description: as §1, §2, §3, §4, §5

KG-1 cells [4] = assay: Long term proliferation assay, InCell read-out; format: cell-based; conditions: for IC50: Homo sapiens
Description: as §1, §2, §3, §4, §5

MV4-11 cells = assay: Long term proliferation assay, InCell read-out; format: cell-based, human; conditions: for IC50: Homo sapiens
Description: as §1, §2, §3, §4, §5

MOLM-13 cells = assay: Long term proliferation assay, InCell read-out; format: cell-based, human; conditions: for IC50: Homo sapiens
Description: as §1, §2, §3, §4, §5

MIAPaCa-2/AMG510 cells = assay: Proliferation assay, cells in adhesion; format: cell-based; conditions: for IC50: Homo sapiens
SK-LU-1 cells = assay: Proliferation assay, cells in adhesion; format: cell-based; conditions: for IC50: Homo sapiens

- IC50 (OCI-AML-3 cells [1]; OCI-AML-3, 96 h, OCI-AML-3, Day 4, Cell Titer-Glo, read-out: Day 4 IC50): 830 nM
- IC50 (OCI-AML-3 cells [1]; OCI-AML-3, 168 h, OCI-AML-3, Day 7, Cell Titer-Glo, read-out: Day 7 IC50): 660 nM
- IC50 (OCI-AML-3 cells [1]; OCI-AML-3, 264 h, OCI-AML-3, Day 11, Cell Titer-Glo, read-out: Day 11 IC50): 580 nM
- IC50 (OCI-AML-3 cells [1]; OCI-AML-3, 336 h, OCI-AML-3, Day 14, Cell Titer-Glo, read-out: Day 14 IC50): 600 nM
- IC50 (OCI-AML-3 cells [1]; OCI-AML-3, OCI-AML3, T4, CellTiter-Glo, read-out: IC50): 830 nM
- IC50 (OCI-AML-3 cells [1]; OCI-AML-3, OCI-AML3, T4, CellTiter-Glo, read-out: pIC50 (converted)): 832 nM
- IC50 (OCI-AML-3 cells [1]; OCI-AML-3, OCI-AML3, T11, CellTiter-Glo, read-out: IC50): 580 nM
- IC50 (OCI-AML-3 cells [1]; OCI-AML-3, OCI-AML3, T11, CellTiter-Glo, read-out: pIC50 (converted)): 575 nM
- IC50 (OCI-AML-3 cells [3]; OCI-AML-3, 96 h, OCI-AML-3, Day 4, read-out: Day 4 IC50): 450 nM
- IC50 (OCI-AML-3 cells [3]; OCI-AML-3, 264 h, OCI-AML-3, Day 11, read-out: Day 11 IC50): 460 nM
- IC50 (OCI-AML-3 cells [3]; OCI-AML-3, OCI-AML3, T4, read-out: IC50): 450 nM
- IC50 (OCI-AML-3 cells [3]; OCI-AML-3, OCI-AML3, T4, read-out: pIC50 (converted)): 447 nM
- IC50 (OCI-AML-3 cells [3]; OCI-AML-3, OCI-AML3, T11, read-out: IC50): 460 nM
- IC50 (OCI-AML-3 cells [3]; OCI-AML-3, OCI-AML3, T11, read-out: pIC50 (converted)): 457 nM
- IC50 (MV4-11 cells; MV4-11, 96 h, MV4-11, Day 4, read-out: Day 4 IC50): 420 nM
- IC50 (MV4-11 cells; MV4-11, 264 h, MV4-11, Day 11, read-out: Day 11 IC50): 490 nM
- IC50 (MV4-11 cells; MV4-11, MV4-11, T4, read-out: IC50): 420 nM
- IC50 (MV4-11 cells; MV4-11, MV4-11, T4, read-out: pIC50 (converted)): 417 nM
- IC50 (MV4-11 cells; MV4-11, MV4-11, T11, read-out: IC50): 490 nM
- IC50 (MV4-11 cells; MV4-11, MV4-11, T11, read-out: pIC50 (converted)): 490 nM
- IC50 (MOLM-13 cells; MOLM-13, 96 h, MOLM-13, Day 4, read-out: Day 4 IC50): 150 nM
- IC50 (MOLM-13 cells; MOLM-13, 264 h, MOLM-13, Day 11, read-out: Day 11 IC50): 380 nM
- IC50 (MOLM-13 cells; MOLM-13, MOLM-13, T4, read-out: IC50): 150 nM
- IC50 (MOLM-13 cells; MOLM-13, MOLM-13, T4, read-out: pIC50 (converted)): 148 nM
- IC50 (MOLM-13 cells; MOLM-13, MOLM-13, T11, read-out: IC50): 380 nM
- IC50 (MOLM-13 cells; MOLM-13, MOLM-13, T11, read-out: pIC50 (converted)): 380 nM
- IC50 (MIAPaCa-2/AMG510 cells; MIA PaCa-2, MIAPaCa-2/AMG510, T4, read-out: IC50): 810 nM
- IC50 (MIAPaCa-2/AMG510 cells; MIA PaCa-2, MIAPaCa-2/AMG510, T4, read-out: pIC50 (converted)): 813 nM
- IC50 (MIAPaCa-2/AMG510 cells; MIA PaCa-2, MIAPaCa-2/AMG510, T7, read-out: IC50): 350 nM
- IC50 (MIAPaCa-2/AMG510 cells; MIA PaCa-2, MIAPaCa-2/AMG510, T7, read-out: pIC50 (converted)): 347 nM
- IC50 (MIAPaCa-2/AMG510 cells; MIAPaCa-2/AMG510, T11, read-out: IC50): 270 nM
- IC50 (MIAPaCa-2/AMG510 cells; MIAPaCa-2/AMG510, T11, read-out: pIC50 (converted)): 269 nM
- IC50 (SK-LU-1 cells; SK-LU-1, SK-LU-1, T4, read-out: IC50): > 5 µM
- IC50 (SK-LU-1 cells; SK-LU-1, SK-LU-1, T4, read-out: pIC50 (converted)): > 5.01 µM
- IC50 (SK-LU-1 cells; SK-LU-1, SK-LU-1, T7, read-out: IC50): > 5 µM
- IC50 (SK-LU-1 cells; SK-LU-1, SK-LU-1, T7, read-out: pIC50 (converted)): > 5.01 µM
- IC50 (SK-LU-1 cells; SK-LU-1, SK-LU-1, T11, read-out: IC50): > 5 µM
- IC50 (SK-LU-1 cells; SK-LU-1, SK-LU-1, T11, read-out: pIC50 (converted)): > 5.01 µM
SMILES: CN(C)C/C=C/C(=O)Nc1ccc(CC(=O)Nc2ccc(-c3cc4c(N5CCOCC5)ncnc4[nH]3)cc2)cc1 [Compound 5]
- % max (OCI-AML-3 cells [1]; T4, CellTiter-Glo): 97%
- % max (OCI-AML-3 cells [1]; T11, CellTiter-Glo): 99%
- IC50 (KG-1 cells [2]; 96 h, Day 4, Cell Titer-Glo, read-out: Day 4 IC50): > 5 µM
- IC50 (KG-1 cells [2]; 168 h, Day 7, Cell Titer-Glo, read-out: Day 7 IC50): > 5 µM
- IC50 (KG-1 cells [2]; 264 h, Day 11, Cell Titer-Glo, read-out: Day 11 IC50): 4.68 µM
- IC50 (KG-1 cells [2]; 336 h, Day 14, Cell Titer-Glo, read-out: Day 14 IC50): 4.07 µM
- IC50 (KG-1 cells [2]; T4, CellTiter-Glo, read-out: IC50): > 5 µM
- IC50 (KG-1 cells [2]; T4, CellTiter-Glo, read-out: pIC50 (converted)): > 5.01 µM
- IC50 (KG-1 cells [2]; T11, CellTiter-Glo, read-out: IC50): 4.68 µM
- IC50 (KG-1 cells [2]; T11, CellTiter-Glo, read-out: pIC50 (converted)): 4.68 µM
- % max (KG-1 cells [2]; T4, CellTiter-Glo): <50%
- % max (KG-1 cells [2]; T11, CellTiter-Glo): 59%
- % max (OCI-AML-3 cells [3]; OCI-AML3, T4): 100%
- % max (OCI-AML-3 cells [3]; OCI-AML3, T11): 100%
- IC50 (KG-1 cells [4]; KG-1, 96 h, KG-1, Day 4, read-out: Day 4 IC50): > 5 µM
- IC50 (KG-1 cells [4]; KG-1, 264 h, KG-1, Day 11, read-out: Day 11 IC50): > 4.47 µM
- IC50 (KG-1 cells [4]; KG-1, KG-1, T4, read-out: IC50): > 5 µM
- IC50 (KG-1 cells [4]; KG-1, KG-1, T4, read-out: pIC50 (converted)): > 5.01 µM
- IC50 (KG-1 cells [4]; KG-1, KG-1, T11, read-out: IC50): 4.47 µM
- IC50 (KG-1 cells [4]; KG-1, KG-1, T11, read-out: pIC50 (converted)): 4.47 µM
- % max (KG-1 cells [4]; KG-1, T4): <50%
- % max (KG-1 cells [4]; KG-1, T11): 52%
- % max (MV4-11 cells; MV4-11, T4): 83%
- % max (MV4-11 cells; MV4-11, T11): 83%
- % max (MOLM-13 cells; MOLM-13, T4): 97%
- % max (MOLM-13 cells; MOLM-13, T11): 98%
- % max (MIAPaCa-2/AMG510 cells; MIAPaCa-2/AMG510, T4): 92%
- % max (MIAPaCa-2/AMG510 cells; MIAPaCa-2/AMG510, T7): 98%
- % max (MIAPaCa-2/AMG510 cells; MIAPaCa-2/AMG510, T11): 99%
- % max (SK-LU-1 cells; SK-LU-1, T4): <50%
- % max (SK-LU-1 cells; SK-LU-1, T7): <50%
- % max (SK-LU-1 cells; SK-LU-1, T11): <50%
